Assay results taken from US20240366540A1, “MITOFUSIN INHIBITORS AND USES THEREOF” (Albert Einstein College of Medicine, priority 2021, published 2024).

Experiments:
MOLM13 cells [1] = assay: Cell viability, leukemia cells; format: cell-based; settings: MOLM13, 72 hr, Cell titer Glo
Description: (§1) Cell titer Glo was used to measure viability. Cells were treated with MFI8 for 72 hr (n=3, mean±SD).
(§2) Cell viability assay. Cells (5×10^3 cells/well) were seeded in a 96-well white plate and treated with serial dilutions of MASM7 or MFI8. Cell viability was assayed after 72 hrs by addition of CellTiter-Glo reagent according to the manufacturer's protocol (Promega). Luminescence was measured using a F200 PRO microplate reader (TECAN). Viability assays were performed in at least triplicate and the data normalized to vehicle-treated control wells. Dilutions of MASM7 or MFI8 were performed using a TECAN D300e Digital Dispenser from 10 mM stocks.

MV-411 cells = assay: Cell viability, leukemia cells; format: cell-based; settings: MV-411, 72 hr, Cell titer Glo
Description: as §1, §2

MEFs [2] = assay: DNA damage, yH2AX immunofluorescence in MEFs; format: cell-based, mouse; settings: 6 h
Description: Immunofluorescent analysis and microscopy. […] After treatments, cells were washed with PBS and fixed with 4% PFA for 15 min. […] After incubation with primary antibodies, cells were washed with PBS and incubated with the appropriate mouse secondary antibody (ThermoFisher Scientific; A-11001) in the blocking solution. After PBS washes, coverslips were dipped in water and mounted on glass slides using Vectashield containing DAPI (Vector laboratories). […] Data were analyzed with ImageJ.

cells [3] = assay: Cell viability assay (CellTiter-Glo); format: cell-based; settings: 72 hours
Description: Cell viability assay. […] Cell viability was assayed after 72 hrs by addition of CellTiter-Glo reagent according to the manufacturer's protocol (Promega). Luminescence was measured using a […] microplate reader (TECAN). Viability assays were performed in at least triplicate and the data normalized to vehicle-treated control wells.

A375 cells = assay: Cell viability, melanoma cells; format: cell-based; settings: A375, 72 hr, Cell titer Glo
Description: as §1, §2

cells [4] = assay: Cell death assay (Annexin V / propidium iodide); format: cell-based; settings: for sensitization to BV6-induced cell death: in combination with BV6
Description: (§3) Cell death assay. Cells (2×10^5 cells/well) were seeded in a 6-well plate and treated with the indicated drugs for 6 hours. Cells were dissociated using Accutase (Thermo Fisher; Cat. #00-4555-56) in order to avoid accidental exposure of phosphatidylserine on the outer plasma membrane. Cell death was evaluated with Dead Cell Apoptosis Kit with Annexin V Alexa Fluor™ 488 & Propidium Iodide (Thermo Fisher; Cat. #V13241) according to manufacturer's protocol. Data was acquired by BD LSRII flow cytometer system using BD FACSDiva software. Data was analyzed by FlowJo (BD).

MEFs [5] = assay: Mitochondrial depolarization assay (TMRE membrane potential); format: cell-based, mouse
Description: Mitochondrial depolarization assay (mtΔΨ). MEFs (10^4 cells/well) were seeded in a 96-well black plate and treated with MASM7 or MFI8 for 6 hrs. Following treatments, cells were stained with 250 nM TMRE (Sigma; Cat. 87917) for 20 min at 37° C. Subsequently, cells were washed with thrice with PBS. Fluorescence intensity was detected by a M100 microplate reader (TECAN, Ex: 540 nm/Em: 579 nm).

BXPC3 cells = assay: Cell viability, pancreatic cancer cells; format: cell-based; settings: BXPC3, 72 hr, Cell titer Glo
Description: as §1, §2

MOLM13 cells [6] = assay: Caspase 3/7 activation in MOLM13 cells with AMG-176; format: cell-based; settings: increasing concentrations of AMG-176 and MFI8
Description: Caspase-3/7 activation assay. Cells (5×10^3 cells/well) were seeded in a 96-well white plate and treated with MASM7, MFI8. Caspase 3/7 activation was measured after 6 hr by addition of the Caspase-Glo 3/7 reagent according to the manufacturer's protocol (Promega). Luminescence was detected by a F200 PRO microplate reader (TECAN). Caspase assays were performed in at least triplicate and the data normalized to vehicle-treated control wells. Dilutions of MASM7 or MFI8 were performed using a TECAN D300e Digital Dispenser from 10 mM stocks.

MEFs [7] = assay: Metabolomics (TCA cycle carboxylic acids, NAD, NADH); format: cell-based, mouse; settings: UPLC-MRM/MS
Description: Metabolomics. […] Cells were harvested using a cell scraper and centrifuged at 1200 rpm in 4° C. for 3 min. Each cell pellet sample was suspended into 250 to 700 μL of 80% aqueous methanol in an Eppendorf tube. The samples were vortex mixed for 15 s and sonicated in an ice-water bath for 5 min, followed by centrifugal clarification at 15,000 rpm and 5° C. in an Eppendorf […] centrifuge. The clear supernatants were collected. A standard stock solution of TCA cycle carboxylic acids, NAD and NADH was prepared in 80% methanol as S1. This standard solution S1 was serially diluted 1 to 4 (v/v) with the same solvent to make standard solutions S2 to S10. 20 μL of each standard solution and an aliquot of the clear supernatant from each cell was mixed with 20 μL of an internal standard solution containing 9 ^13C- or deuterium labeled analogues of the TCA cycle carboxylic acids (except isocitric acid), 20 μL of 200 mM 3-NPH solution and 20 μL of 150 mM of EDC solution. The mixtures were allowed to react at 30° C. for 30 min. After reaction, 120 μL of water was added to each solution. 10 μL of the resultant solutions was injected into a C18 UPLC column to quantitate the TCA cycle carboxylic acids by UPLC-MRM/MS with (-) ion detection, according to the procedure we described in a publication.

U2OS cells = assay: DNA damage, yH2AX immunofluorescence in U2OS; format: cell-based
Description: Immunofluorescent analysis and microscopy. Cells were treated with MASM7, MFI8 and or Q-VD-OPh at ˜70% confluence for 6 h. After treatments, cells were washed with PBS and fixed with 4% PFA for 15 min. Then cells were permeabilized with 0.1% Triton X-100 in PBS for 10 min. Cells were blocked with 5% BSA in PBS-T and incubated overnight with primary antibodies as indicated; yH2AX (Sigma; 05-636, 1:100 dilution). After incubation with primary antibodies, cells were washed with PBS and incubated with the appropriate mouse secondary antibody (ThermoFisher Scientific; A-11001) in the blocking solution. After PBS washes, coverslips were dipped in water and mounted on glass slides using Vectashield containing DAPI (Vector laboratories). […] Data were analyzed with ImageJ.

Calu-6 cells = assay: Cell death (Annexin V) in Calu-6 cells; format: cell-based; settings: 20 μM, indicated timepoints
Description: Calu-6 cells were treated with MFI8 (20 μM). Cell death was monitored at the indicated timepoints using Annexin V as a readout. Data represent mean (n=3).
as §3

## Cc1cccc(NC(C)c2cc(Cl)ccc2O)c1C (stereo not drawn) [MFI8, 4-Chloro-2-(1-((2,3-dimethylphenyl)amino)ethyl)phenol]
MOLM13 cells [1]
  viability: concentration responsively reduces viability
MV-411 cells
  viability: concentration responsively reduces viability
MEFs [2]; MFN1/MFN2 DKO MEFs
  DNA damage (yH2AX foci): not in MFN1/MFN2 DKO MEFs
MEFs [2]; WT MEFs
  DNA damage (yH2AX foci): increased yH2AX foci in WT MEFs
Cells [3]
  cellular viability: neither MFI8 nor MASM7 decreased cellular viability
A375 cells
  viability: concentration responsively reduces viability
Cells [4]; compound alone, upon caspase 3/7 activation
  percentage of dead cells: did not increase the percentage of dead cells
Cells [4]
  sensitization to BV6-induced cell death: potentiated the capacity of BV6 to induce cell death
Cells [4]; deletion of MFN1/2 and APAF
  sensitization to BV6-induced cell death: abolished the capacity of MFI8 to sensitize cells to BV6 treatment
MEFs [5]; MFN1/MFN2 DKO MEFs reconstituted with L692A MFN2
  mitochondrial membrane potential (TMRE): not when reconstituted with L692A MFN2
MEFs [5]; MFN1/MFN2 DKO MEFs reconstituted with WT MFN2
  mitochondrial membrane potential (TMRE): significantly decreased mitochondrial membrane potential
MEFs [5]; WT MEFs, 6 hrs
  mitochondrial membrane potential (TMRE): concentration responsively decreased mitochondrial membrane potential
BXPC3 cells
  viability: concentration responsively reduces viability
MOLM13 cells [6]
  caspase 3/7 activation in response to AMG-176: sensitizes cells to caspase activation
MEFs [7]
  metabolites of the TCA cycle: markedly reduced several metabolites such as malate, oxaloacetate, and α-ketoglutarate
U2OS cells; U2OS cells
  DNA damage (yH2AX): induced DNA damage in U2OS cells
U2OS cells; U2OS, co-treatment with pan-caspase inhibitor Q-VD-OPh
  DNA damage (yH2AX): abolished the capacity of the latter to induce DNA damage
Calu-6 cells
  apoptosis / cell death (Annexin V): induces apoptosis in Calu-6 cells
